In patent publication US20150105252A1, “SUBSTITUTED PYRAZOLES AS HERBICIDES” (E I DU PONT DE NEMOURS AND COMPANY, priority 2013, published 2015):

How the values were obtained:
barnyardgrass [1] = test: Test B flood; format: in vivo, Echinochloa crus-galli; conditions: 250 g ai/ha, visual rating on 0 to 100 scale (0 no effect, 100 complete control), 13 to 15 days
Method in brief: (§1)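 Plants were grown to the 2-leaf stage and pots flooded to 3 cm above soil. Compounds were applied directly into the paddy water, with depth kept for the test. After 13–15 days in greenhouse, response was rated visually against controls on a 0 (no effect) to 100 (complete control) scale.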

barnyardgrass [2] = test: Test A postemergence; format: in vivo, Echinochloa crus-galli
Method in brief: (§2)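 Visual injury ratings, 0 = no effect to 100 = complete control, taken about 10 days after treatment against untreated controls. Test chemicals, in a non-phytotoxic surfactant-containing solvent, were sprayed onto soil preemergence or onto one- to two-leaf plants (2–10 cm) postemergence, in loam–sand soil under greenhouse conditions.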

wheat [3] = test: Test A postemergence; format: in vivo, Triticum aestivum
Method in brief: as §2

morningglory [4] = test: Test A preemergence; format: in vivo, Ipomoea spp.; conditions: preemergence; for Morningglory plant response rating (0 to 100 scale): 125 g ai/ha, visual injury approx. 10 days after treatment; for Morningglory plant response rating: 500 g ai/ha, visual injury after approx. 10 days, 0 to 100 scale (0 no effect, 100 complete control)
Method in brief: as §2

velvetleaf [5] = test: Test A preemergence; format: in vivo, Abutilon theophrasti; conditions: preemergence; for Velvetleaf plant response rating (0 to 100 scale): 125 g ai/ha, visual injury approx. 10 days after treatment; for Velvetleaf plant response rating: 500 g ai/ha, visual injury after approx. 10 days, 0 to 100 scale (0 no effect, 100 complete control)
Method in brief: as §2

pigweed [6] = test: Test A postemergence; format: in vivo, Amaranthus retroflexus
Method in brief: as §2

sedge, umbrella = test: Test B flood; format: in vivo, Cyperus difformis; conditions: 250 g ai/ha, visual rating on 0 to 100 scale (0 no effect, 100 complete control), 13 to 15 days
Method in brief: as §1

velvetleaf [7] = test: Test A postemergence; format: in vivo, Abutilon theophrasti
Method in brief: as §2

foxtail, giant [8] = test: Test A postemergence; format: in vivo, Setaria faberii
Method in brief: as §2

rice = test: Test B flood; format: in vivo, Oryza sativa; conditions: 250 g ai/ha, visual rating on 0 to 100 scale (0 no effect, 100 complete control), 13 to 15 days
Method in brief: as §1

crabgrass, large [9] = test: Test A preemergence; format: in vivo, Digitaria sanguinalis; conditions: preemergence; for Crabgrass, Large plant response rating (0 to 100 scale): 125 g ai/ha, visual injury approx. 10 days after treatment; for Crabgrass, Large plant response rating: 500 g ai/ha, visual injury after approx. 10 days, 0 to 100 scale (0 no effect, 100 complete control)
Method in brief: as §2

crabgrass, large [10] = test: Test A postemergence; format: in vivo, Digitaria sanguinalis
Method in brief: as §2

wheat [11] = test: Test A preemergence; format: in vivo, Triticum aestivum; conditions: preemergence; for Wheat plant response rating (0 to 100 scale): 125 g ai/ha, visual injury approx. 10 days after treatment; for Wheat plant response rating: 500 g ai/ha, visual injury after approx. 10 days, 0 to 100 scale (0 no effect, 100 complete control)
Method in brief: as §2

foxtail, giant [12] = test: Test A preemergence; format: in vivo, Setaria faberii; conditions: preemergence; for Foxtail, Giant plant response rating (0 to 100 scale): 125 g ai/ha, visual injury approx. 10 days after treatment; for Foxtail, Giant plant response rating: 500 g ai/ha, visual injury after approx. 10 days, 0 to 100 scale (0 no effect, 100 complete control)
Method in brief: as §2

corn [13] = test: Test A postemergence; format: in vivo, Zea mays
Method in brief: as §2

barnyardgrass [14] = test: Test A preemergence; format: in vivo, Echinochloa crus-galli; conditions: preemergence; for Barnyardgrass plant response rating (0 to 100 scale, 0 is no effect, 100 is complete control): visual injury approx. 10 days after treatment
Method in brief: as §2

pigweed [15] = test: Test A preemergence; format: in vivo, Amaranthus retroflexus; conditions: preemergence; for Pigweed plant response rating (0 to 100 scale): 125 g ai/ha, visual injury approx. 10 days after treatment; for Pigweed plant response rating: 500 g ai/ha, visual injury after approx. 10 days, 0 to 100 scale (0 no effect, 100 complete control)
Method in brief: as §2

ducksalad = test: Test B flood; format: in vivo, Heteranthera limosa; conditions: 250 g ai/ha, visual rating on 0 to 100 scale (0 no effect, 100 complete control), 13 to 15 days
Method in brief: as §1

morningglory [16] = test: Test A postemergence; format: in vivo, Ipomoea spp.
Method in brief: as §2

corn [17] = test: Test A preemergence; format: in vivo, Zea mays; conditions: preemergence; for Corn plant response rating (0 to 100 scale): 125 g ai/ha, visual injury approx. 10 days after treatment; for Corn plant response rating: 500 g ai/ha, visual injury after approx. 10 days, 0 to 100 scale (0 no effect, 100 complete control)
Method in brief: as §2

[18] = Postemergence, 500 g ai/ha, 0 to 100 scale (0 no effect, 100 complete control)
[19] = postemergence, 125 g ai/ha, about 10 days, visual rating on 0 to 100 scale (0 no effect, 100 complete control)
[20] = 125 g ai/ha, visual injury, 0 to 100 scale, approx. 10 days
[21] = 500 g ai/ha, visual injury after approx. 10 days, 0 to 100 scale (0 no effect, 100 complete control)

Row | SMILES | Plant response rating, Barnyardgrass (barnyardgrass [1]) | Barnyardgrass plant response rating (barnyardgrass [2]; [18]) | Barnyardgrass plant response rating (barnyardgrass [2]; [19]) | Wheat plant response rating (wheat [3]; [18]) | Morningglory plant response rating (0 to 100 scale) (morningglory [4]) | Morningglory plant response rating (morningglory [4]) | Velvetleaf plant response rating (0 to 100 scale) (velvetleaf [5]) | Velvetleaf plant response rating (velvetleaf [5]) | Pigweed plant response rating (pigweed [6]; [18]) | Plant response rating, Sedge, Umbrella (sedge, umbrella) | Velvetleaf plant response rating (velvetleaf [7]; [18]) | Foxtail, Giant plant response rating (foxtail, giant [8]; [18]) | Foxtail, Giant plant response rating (foxtail, giant [8]; [19]) | Plant response rating, Rice (rice) | Crabgrass, Large plant response rating (0 to 100 scale) (crabgrass, large [9]) | Crabgrass, Large plant response rating (crabgrass, large [9]) | Crabgrass, Large plant response rating (crabgrass, large [10]; [18]) | Crabgrass, Large plant response rating (crabgrass, large [10]; [19]) | Wheat plant response rating (0 to 100 scale) (wheat [11]) | Wheat plant response rating (wheat [11]) | other results
1 | O=C(NCC(F)(F)F)c1cc(Cl)n(Cc2cccc(C(F)(F)F)c2)n1 [Compound 170] | 0 | 30 | 10 | 0 | 0 | 0 | 0 | 0 | 80 | 0 | 40 | 10 | 0 | 0 | 10 | 70 | 30 | 20 | 0 | 0 | Wheat plant response rating (wheat [3]; [19]): 0; Pigweed plant response rating (pigweed [6]; [19]): 60; Velvetleaf plant response rating (velvetleaf [7]; [19]): 0; Foxtail, Giant plant response rating (0 to 100 scale) (foxtail, giant [12]): 0; Foxtail, Giant plant response rating (foxtail, giant [12]): 50; Corn plant response rating (corn [13]; [18]): 10; Corn plant response rating (corn [13]; [19]): 0; Barnyardgrass plant response rating (barnyardgrass [14]; [20]): 0; Barnyardgrass plant response rating (barnyardgrass [14]; [21]): 0; Pigweed plant response rating (0 to 100 scale) (pigweed [15]): 0; Pigweed plant response rating (pigweed [15]): 60; Plant response rating, Ducksalad (ducksalad): 0; Morningglory plant response rating (morningglory [16]; [18]): 20; Morningglory plant response rating (morningglory [16]; [19]): 10; Corn plant response rating (0 to 100 scale) (corn [17]): 0; Corn plant response rating (corn [17]): 0
2 | CCc1cc(C(=O)NC2CC2)nn1Cc1nnc(C(F)(F)F)o1 [Compound 172] | 0 | 10 | 0 | 0 | 30 | 40 | 10 | 20 | 80 | 0 | 20 | 10 | 0 | 0 | 50 | 90 | 20 | 10 | 0 | 0 | Wheat plant response rating (wheat [3]; [19]): 0; Pigweed plant response rating (pigweed [6]; [19]): 30; Velvetleaf plant response rating (velvetleaf [7]; [19]): 10; Foxtail, Giant plant response rating (0 to 100 scale) (foxtail, giant [12]): 20; Foxtail, Giant plant response rating (foxtail, giant [12]): 50; Corn plant response rating (corn [13]; [18]): 10; Corn plant response rating (corn [13]; [19]): 0; Barnyardgrass plant response rating (barnyardgrass [14]; [20]): 0; Barnyardgrass plant response rating (barnyardgrass [14]; [21]): 50; Pigweed plant response rating (0 to 100 scale) (pigweed [15]): 80; Pigweed plant response rating (pigweed [15]): 100; Plant response rating, Ducksalad (ducksalad): 0; Morningglory plant response rating (morningglory [16]; [18]): 70; Morningglory plant response rating (morningglory [16]; [19]): 30; Corn plant response rating (0 to 100 scale) (corn [17]): 0; Corn plant response rating (corn [17]): 10
3 | O=C(NC1CC1)c1cc(I)n(Cc2cccc(C(F)(F)F)c2)n1 [Compound 180] | 0 | 30 | 0 | 0 | 0 | 0 | 0 | 0 | 100 | 0 | 30 | 30 | 10 | 0 | 30 | 100 | 30 | 10 | 0 | 0 | Wheat plant response rating (wheat [3]; [19]): 0; Pigweed plant response rating (pigweed [6]; [19]): 70; Velvetleaf plant response rating (velvetleaf [7]; [19]): 0; Foxtail, Giant plant response rating (0 to 100 scale) (foxtail, giant [12]): 10; Foxtail, Giant plant response rating (foxtail, giant [12]): 90; Corn plant response rating (corn [13]; [18]): 0; Corn plant response rating (corn [13]; [19]): 0; Barnyardgrass plant response rating (0 to 100 scale, 0 is no effect, 100 is complete control) (barnyardgrass [14]; 125 g ai/ha): 0; Barnyardgrass plant response rating (barnyardgrass [14]; [21]): 40; Pigweed plant response rating (0 to 100 scale) (pigweed [15]): 10; Pigweed plant response rating (pigweed [15]): 100; Plant response rating, Ducksalad (ducksalad): 0; Morningglory plant response rating (morningglory [16]; [18]): 80; Morningglory plant response rating (morningglory [16]; [19]): 0; Corn plant response rating (0 to 100 scale) (corn [17]): 0; Corn plant response rating (corn [17]): 0
4 | CCCCNC(=O)c1cc(I)n(Cc2cccc(C(F)(F)F)c2)n1 [Compound 182] | 0 | 30 | 20 | 0 | 0 | 0 | 0 | 0 | 90 | 0 | 70 | 20 | 0 | 0 | 0 | 60 | 30 | 10 | 0 | 0 | Foxtail, Giant plant response rating (0 to 100 scale) (foxtail, giant [12]): 0; Foxtail, Giant plant response rating (foxtail, giant [12]): 50; Corn plant response rating (corn [13]; [18]): 20; Corn plant response rating (corn [13]; [19]): 0; Barnyardgrass plant response rating (0 to 100 scale, 0 is no effect, 100 is complete control) (barnyardgrass [14]; 125 g ai/ha): 0; Barnyardgrass plant response rating (barnyardgrass [14]; [21]): 0; Pigweed plant response rating (0 to 100 scale) (pigweed [15]): 0; Pigweed plant response rating (pigweed [15]): 30; Plant response rating, Ducksalad (ducksalad): 0; Morningglory plant response rating (morningglory [16]; [18]): 30; Corn plant response rating (0 to 100 scale) (corn [17]): 0; Corn plant response rating (corn [17]): 0
